Tested on: M. tuberculosis
Experiment: Extracellular activity against M. tuberculosis in cholesterol media (Alamar Blue reduction assay)
Type: cell-based, Mycobacterium tuberculosis
Settings: Mycobacterium tuberculosis, 240 h, 7H12-Cholesterol media, 10 days; read-out: Cholesterol broth: alamar blue--EC50

Compound: Cn1nnnc1CC(=O)N1CCC(c2nc(-c3ccc(F)cc3)no2)CC1 [Compound 188, 1-(4-(3-(4-fluorophenyl)-1,2,4-oxadiazol-5-yl)piperidin-1-yl)-2-(1-methyl-1H-tetrazol-5-yl)ethan-1-one]
- EC50: 6330 nM

Compound: Cc1noc(CC(=O)N2CC3CC2CC3c2nc(C3CCCCC3)no2)n1 (stereo not shown) [Compound 189, 1-(5-(3-cyclohexyl-1,2,4-oxadiazol-5-yl)-2-azabicyclo[2.2.1]heptan-2-yl)-2-(3-methyl-1,2,4-oxadiazol-5-yl)ethan-1-one]
- EC50: > 10000 nM

Compound: Cc1noc(CC(=O)N2CC3CC2CC3c2nc(-c3ccc(Cl)c(Cl)c3)no2)n1 (stereo not shown) [Compound 190, 1-(5-(3-(3,4-dichlorophenyl)-1,2,4-oxadiazol-5-yl)-2-azabicyclo[2.2.1]heptan-2-yl)-2-(3-methyl-1,2,4-oxadiazol-5-yl)ethan-1-one]
- EC50: 2900 nM

Compound: Cc1noc(CC(=O)N2CC3CC2CC3c2nc(C3CCC(F)(F)CC3)no2)n1 (stereo not shown) [Compound 191, 1-(5-(3-(4,4-difluorocyclohexyl)-1,2,4-oxadiazol-5-yl)-2-azabicyclo[2.2.1]heptan-2-yl)-2-(3-methyl-1,2,4-oxadiazol-5-yl)ethan-1-one]
- EC50: > 10000 nM

Compound: Cc1noc(CC(=O)N2CC3CC2CC3c2nc(-c3ccc(F)c(F)c3)no2)n1 (stereo not shown) [Compound 192, 1-(5-(3-(3,4-difluorophenyl)-1,2,4-oxadiazol-5-yl)-2-azabicyclo[2.2.1]heptan-2-yl)-2-(3-methyl-1,2,4-oxadiazol-5-yl)ethan-1-one]
- EC50: > 10000 nM

Compound: Cc1noc(CC(=O)N2CC3CC2CC3c2nc(-c3ccc(F)cc3)no2)n1 (stereo not shown) [Compound 193, 1-(5-(3-(4-fluorophenyl)-1,2,4-oxadiazol-5-yl)-2-azabicyclo[2.2.1]heptan-2-yl)-2-(3-methyl-1,2,4-oxadiazol-5-yl)ethan-1-one]
- EC50: > 10000 nM

Compound: Cc1nonc1CC(=O)N1CC2CC1CC2c1nc(C2CCCCC2)no1 (stereo not shown) [Compound 194, 1-(5-(3-cyclohexyl-1,2,4-oxadiazol-5-yl)-2-azabicyclo[2.2.1]heptan-2-yl)-2-(4-methyl-1,2,5-oxadiazol-3-yl)ethan-1-one]
- EC50: 790 nM

Compound: Cc1nonc1CC(=O)N1CC2CC1CC2c1nc(-c2ccc(Cl)c(Cl)c2)no1 (stereo not shown) [Compound 195, 1-(5-(3-(3,4-dichlorophenyl)-1,2,4-oxadiazol-5-yl)-2-azabicyclo[2.2.1]heptan-2-yl)-2-(4-methyl-1,2,5-oxadiazol-3-yl)ethan-1-one]
- EC50: 94 nM

Compound: Cc1nonc1CC(=O)N1CC2CC1CC2c1nc(C2CCC(F)(F)CC2)no1 (stereo not shown) [Compound 196, 1-(5-(3-(4,4-difluorocyclohexyl)-1,2,4-oxadiazol-5-yl)-2-azabicyclo[2.2.1]heptan-2-yl)-2-(4-methyl-1,2,5-oxadiazol-3-yl)ethan-1-one]
- EC50: 1250 nM

Compound: Cc1nonc1CC(=O)N1CC2CC1CC2c1nc(C2CCC(F)C2)no1 (stereo not shown) [Compound 197, 1-(5-(3-(3-fluorocyclopentyl)-1,2,4-oxadiazol-5-yl)-2-azabicyclo[2.2.1]heptan-2-yl)-2-(4-methyl-1,2,5-oxadiazol-3-yl)ethan-1-one]
- EC50: 15500 nM

Compound: Cc1nonc1CC(=O)N1CC2CC1CC2c1nc(-c2ccc(F)c(F)c2)no1 (stereo not shown) [Compound 198, 1-(5-(3-(3,4-difluorophenyl)-1,2,4-oxadiazol-5-yl)-2-azabicyclo[2.2.1]heptan-2-yl)-2-(4-methyl-1,2,5-oxadiazol-3-yl)ethan-1-one]
- EC50: 247 nM

Compound: Cc1nonc1CC(=O)N1CC2CC1CC2c1nc(-c2ccc(F)cc2)no1 (stereo not shown) [Compound 199, 1-(5-(3-(4-fluorophenyl)-1,2,4-oxadiazol-5-yl)-2-azabicyclo[2.2.1]heptan-2-yl)-2-(4-methyl-1,2,5-oxadiazol-3-yl)ethan-1-one]
- EC50: 324 nM

Compound: Cn1ncnc1CC(=O)N1CC2CC1CC2c1nc(-c2ccc(Cl)cc2)no1 (stereo not shown) [Compound 200, 1-(5-(3-(4-chlorophenyl)-1,2,4-oxadiazol-5-yl)-2-azabicyclo[2.2.1]heptan-2-yl)-2-(1-methyl-1H-1,2,4-triazol-5-yl)ethan-1-one]
- EC50: 370 nM

Compound: Cn1ncnc1CC(=O)N1CC2CC1CC2c1nc(-c2ccc(Cl)c(F)c2)no1 (stereo not shown) [Compound 201, 1-(5-(3-(4-chloro-3-fluorophenyl)-1,2,4-oxadiazol-5-yl)-2-azabicyclo[2.2.1]heptan-2-yl)-2-(1-methyl-1H-1,2,4-triazol-5-yl)ethan-1-one]
- EC50: 200 nM

Compound: Cn1ncnc1CC(=O)N1CC2CC1CC2c1nc(-c2ccc(Cl)cc2F)no1 (stereo not shown) [Compound 204, 1-(5-(3-(4-chloro-2-fluorophenyl)-1,2,4-oxadiazol-5-yl)-2-azabicyclo[2.2.1]heptan-2-yl)-2-(1-methyl-1H-1,2,4-triazol-5-yl)ethan-1-one]
- EC50: 740 nM

Compound: Cn1ncnc1CC(=O)N1CC2CC1CC2c1nc(-c2ccc(F)cc2)no1 (stereo not shown) [Compound 205, 1-(5-(3-(4-fluorophenyl)-1,2,4-oxadiazol-5-yl)-2-azabicyclo[2.2.1]heptan-2-yl)-2-(1-methyl-1H-1,2,4-triazol-5-yl)ethan-1-one]
- EC50: 1600 nM

Compound: Cc1noc(CC(=O)N2CC3CC(C2)C3c2nc(-c3ccc(Cl)c(Cl)c3)no2)n1 (stereo not shown) [Compound 206, 1-(6-(3-(3,4-dichlorophenyl)-1,2,4-oxadiazol-5-yl)-3-azabicyclo[3.1.1]heptan-3-yl)-2-(3-methyl-1,2,4-oxadiazol-5-yl)ethan-1-one]
- EC50: > 10000 nM

Compound: Cc1noc(CC(=O)N2CC3CC(C2)C3c2nc(C3CCC(F)(F)CC3)no2)n1 (stereo not shown) [Compound 207, 1-(6-(3-(4,4-difluorocyclohexyl)-1,2,4-oxadiazol-5-yl)-3-azabicyclo[3.1.1]heptan-3-yl)-2-(3-methyl-1,2,4-oxadiazol-5-yl)ethan-1-one]
- EC50: > 10000 nM

Compound: Cc1noc(CC(=O)N2CC3CC(C2)C3c2nc(-c3ccc(F)c(F)c3)no2)n1 (stereo not shown) [Compound 208, 1-(6-(3-(3,4-difluorophenyl)-1,2,4-oxadiazol-5-yl)-3-azabicyclo[3.1.1]heptan-3-yl)-2-(3-methyl-1,2,4-oxadiazol-5-yl)ethan-1-one]
- EC50: ≥ 10000 nM

Compound: Cc1noc(CC(=O)N2CC3CC(C2)C3c2nc(-c3ccc(F)cc3)no2)n1 (stereo not shown) [Compound 209, 1-(6-(3-(4-fluorophenyl)-1,2,4-oxadiazol-5-yl)-3-azabicyclo[3.1.1]heptan-3-yl)-2-(3-methyl-1,2,4-oxadiazol-5-yl)ethan-1-one]
- EC50: ≥ 10000 nM

Compound: Cc1nocc1CC(=O)N1CC2CC(C1)C2c1nc(-c2ccc(F)cc2)no1 (stereo not shown) [Compound 210, 1-(6-(3-(4-fluorophenyl)-1,2,4-oxadiazol-5-yl)-3-azabicyclo[3.1.1]heptan-3-yl)-2-(3-methylisoxazol-4-yl)ethan-1-one]
- EC50: ≥ 25000 nM

Compound: Cc1nonc1CC(=O)N1CC2CC(C1)C2c1nc(C2CCC(C)(F)CC2)no1 (stereo not shown) [Compound 211, 1-(6-(3-(4-fluoro-4-methylcyclohexyl)-1,2,4-oxadiazol-5-yl)-3-azabicyclo[3.1.1]heptan-3-yl)-2-(4-methyl-1,2,5-oxadiazol-3-yl)ethan-1-one]
- EC50: 3760 nM

Compound: Cc1nonc1CC(=O)N1CC2CC(C1)C2c1nc(-c2ccc(Cl)c(Cl)c2)no1 (stereo not shown) [Compound 212, 1-(6-(3-(3,4-dichlorophenyl)-1,2,4-oxadiazol-5-yl)-3-azabicyclo[3.1.1]heptan-3-yl)-2-(4-methyl-1,2,5-oxadiazol-3-yl)ethan-1-one]
- EC50: 5010 nM

Compound: Cc1nonc1CC(=O)N1CC2CC(C1)C2c1nc(C2CCC(F)(F)CC2)no1 (stereo not shown) [Compound 213, 1-(6-(3-(4,4-difluorocyclohexyl)-1,2,4-oxadiazol-5-yl)-3-azabicyclo[3.1.1]heptan-3-yl)-2-(4-methyl-1,2,5-oxadiazol-3-yl)ethan-1-one]
- EC50: 488 nM

Compound: Cc1nonc1CC(=O)N1CC2CC(C1)C2c1nc(-c2ccc(F)c(F)c2)no1 (stereo not shown) [Compound 214, 1-(6-(3-(3,4-difluorophenyl)-1,2,4-oxadiazol-5-yl)-3-azabicyclo[3.1.1]heptan-3-yl)-2-(4-methyl-1,2,5-oxadiazol-3-yl)ethan-1-one]
- EC50: 5050 nM

Compound: Cc1nonc1CC(=O)N1CC2CC(C1)C2c1nc(-c2ccc(F)cc2)no1 (stereo not shown) [Compound 215, 1-(6-(3-(4-fluorophenyl)-1,2,4-oxadiazol-5-yl)-3-azabicyclo[3.1.1]heptan-3-yl)-2-(4-methyl-1,2,5-oxadiazol-3-yl)ethan-1-one]
- EC50: 132 nM

Compound: Cn1ncnc1CC(=O)N1CC2CC(C1)C2c1nc(-c2ccc(Cl)c(Cl)c2)no1 (stereo not shown) [Compound 216, 1-(6-(3-(3,4-dichlorophenyl)-1,2,4-oxadiazol-5-yl)-3-azabicyclo[3.1.1]heptan-3-yl)-2-(1-methyl-1H-1,2,4-triazol-5-yl)ethan-1-one]
- EC50: > 10000 nM

Compound: Cn1ncnc1CC(=O)N1C[C@H]2C[C@@H](C1)[C@@H]2c1nc(-c2ccc(Cl)c(Cl)c2)no1 [Compound 217, 1-((1R,5S,6r)-6-(3-(3,4-dichlorophenyl)-1,2,4-oxadiazol-5-yl)-3-azabicyclo[3.1.1]heptan-3-yl)-2-(1-methyl-1H-1,2,4-triazol-5-yl)ethan-1-one]
- EC50: 100 nM

Compound: Cn1ncnc1CC(=O)N1C[C@H]2C[C@@H](C1)[C@H]2c1nc(-c2ccc(Cl)c(Cl)c2)no1 [Compound 218, 1-((1R,5S,6s)-6-(3-(3,4-dichlorophenyl)-1,2,4-oxadiazol-5-yl)-3-azabicyclo[3.1.1]heptan-3-yl)-2-(1-methyl-1H-1,2,4-triazol-5-yl)ethan-1-one]
- EC50: > 10000 nM

Compound: Cn1ncnc1CC(=O)N1C[C@H]2C[C@@H](C1)[C@H]2c1nc(-c2ccc(Cl)cc2)no1 [Compound 219, 1-((1R,5S,6s)-6-(3-(4-chlorophenyl)-1,2,4-oxadiazol-5-yl)-3-azabicyclo[3.1.1]heptan-3-yl)-2-(1-methyl-1H-1,2,4-triazol-5-yl)ethan-1-one]
- EC50: > 10000 nM

Compound: Cn1ncnc1CC(=O)N1C[C@H]2C[C@@H](C1)[C@@H]2c1nc(-c2ccc(Cl)cc2)no1 [Compound 220, 1-((1R,5S,6r)-6-(3-(4-chlorophenyl)-1,2,4-oxadiazol-5-yl)-3-azabicyclo[3.1.1]heptan-3-yl)-2-(1-methyl-1H-1,2,4-triazol-5-yl)ethan-1-one]
- EC50: 140 nM

Reference: patent US20260048047A1, “SMALL-MOLECULE ACTIVATORS OF MYCOBACTERIUM TUBERCULOSIS ADENYLYL CYCLASE” (priority 2022, published 2026)
